Results taken from US20050232860A1, “Use of edg-receptor agonists for the treatment of hypertension” (priority 2001, published 2005).
Counter-ions that a name gives are not always drawn.

Legend:
PC12 cells = assay: Veratridine-evoked [^3H]noradrenaline release from PC12 cells; type: cell-based, rat; settings: for activity at 100 µM: PC-12, read-out: Veratridine (1 mM)-induced [^3H]noradrenaline release (% of controls without drug); for effect on veratridine-induced [^3H]noradrenaline release (concentration-response): in the presence of 3 μM rauwolscine; for effect on veratridine-evoked [^3H]noradrenaline release (concentration-response): in the absence of rauwolscine / interacting drugs; for effect on veratridine-evoked [^3H]noradrenaline release, given alone: CB1 antagonist given alone; for effect on evoked tritium overflow: 3 μM rauwolscine
Procedure: PC12 cells were cultured in suspension culture as described by Harder and Bönisch (1984). […] For the experiments on intact cells, PC12 cells were cultured in a humidified CO2-incubator (at 37° C. and in the presence of 9% CO2) on dishes (60 mm, Nunc) coated with polyornithine 0.1 g/l (in 0.15 M boric acid, and 67 mM NaOH, adjusted with HCl to pH 8.4). Each culture dish contained about 10^7 cells corresponding to about 1 mg cell protein.
To load the cells with labelled noradrenaline, 10 nM [^3H]noradrenaline was added to the culture medium (3 ml/dish) and the cells were incubated for 3 h in a CO2-incubator (37° C.). To minimize oxidation of the catecholamine, L(+)-ascorbic acid (1 mM) was present in all solutions. The cells were then washed twice with culture medium and incubated for 60 min with [^3H]noradrenaline-free culture medium (with a change of the medium after 30 min). Subsequently the cell dishes were transferred to a water bath of 37° C. (onset of the experiment) and the cells were then incubated until the end of the experiment with prewarmed (37° C.) [^3H]noradrenaline-free HEPES-buffered salt solution (composition in mM unless stated otherwise: NaCl 125, KCl 15, KH2PO4 1.2, CaCl2 2.6, MgSO4 1.2, HEPES-NaOH (pH 7.4) 25, D(+)-glucose 5.6, L(+)-ascorbic acid 1.0) with a change of the medium every 5 min (total incubation time in the HEPES buffer: 85 min). To minimize loss of cells during washing und to inhibit the neuronal noradrenaline transport system the solution contained 1 g/l bovine serum albumin and 1 μM desipramine, respectively (Friedrich and Bönisch, 1986). The agonist and/or antagonist under study was added to the HEPES buffer at the onset of the exposure to this buffer. Sixty min after onset of incubation with the buffer 1 mM veratridine was added for 5 min. In a few experiments, the HEPES-buffered salt solution contained 4.8 instead of 15 mM KCl and stimulation was carried out either by 1 mM veratridine or by increasing the KCl concentration to 15 mM (time schedule identical to the standard procedure). In one series of experiments, culture medium was changed daily (instead of changing it every 3 days as standard condition) and 100 μM clonidine was added to the medium for 72 h. The cells were then washed twice with clonidine-free culture medium (with a change of the medium after 30 min). Subsequently the cell dishes were transferred to a water bath of 37° C. (onset of the experiment) and the cells were then incubated until the end of the experiment with prewarmed (37° C.) [^3H]noradrenaline-free HEPES-buffered salt solution and veratridine was administered 2 h after the end of exposure to clonidine. Basal efflux of tritium was determined in the 5-min period before and in that 20 min after onset of stimulation. Veratridine-evoked tritium overflow was determined in the four 5-min periods after the onset of veratridine application. At the end of the experiment, the cells were solubilized by 0.1% v/v TritonX-100 (in 5 mM Tris-HCl, pH 7.4). The radioactivity of the solubilized cells und of the wash-out samples was determined by liquid scintillation counting.

h(edg2) receptor = molecular target: T1, h(edg2) receptor (Homo sapiens, UniProt Q92633); assay: Agonist-induced [^35S]GTPγS binding to membranes from RH7777 cells stably transfected with h(edg2) receptors; type: biochemical; settings: for agonist character at the edg2-receptor: increase to the same extent as for the endogenous ligand LPA; for effect on [^35S]GTPγS-binding: nanomolar concentrations, 10 μM rauwolscine, 0.1 μM GDP
T1 construct: expressed in transfected cells; host or cells: RH7777 cells (rat hepatoma cells), membranes
Procedure: RH7777 cells (rat hepatoma cells) stably transfected with cDNA encoding the h(edg2) receptor and PC12 cells were homogenized in ice-cold 20 mM HEPES buffer containing […] EDTA (pH 7.4 at RT) with an ultraturrax homgenizer and centrifuged at 48,000 g, 4° C. for 15 min. The pellet was resuspended in ice-cold 20 mM HEPES buffer containing 0.1 mM EDTA (pH 7.4 at RT) and recentrifuged at 48,000 g, 4° C. for 15 min. The final pellet was resuspended in 20 mM HEPES buffer (pH 7.4 at RT).
50 μg Membranes were incubated in 0.5 ml of GTP-binding buffer containing GDP 0.1 μM, rauwolscine 10 μM (in the experiments with membranes from RH7777 cells), [^35S]GTPγs 0.05 nM and indicated test compound (LPA, clonidine or moxonidine diluted in assay buffer containing 1% fatty acid free BSA) for 45 min at 30° C. The incubation was terminated by filtering over GF/B filters with a cell harvester, and the filters were washed once with 5 ml of ice-cold assay buffer. Radioactivity was counted by liquid scintillation spectrometry at an efficiency of >95%.

[1] = drug 100 μM, 3 μM rauwolscine present

T1 sequence (Q92633 whole entry): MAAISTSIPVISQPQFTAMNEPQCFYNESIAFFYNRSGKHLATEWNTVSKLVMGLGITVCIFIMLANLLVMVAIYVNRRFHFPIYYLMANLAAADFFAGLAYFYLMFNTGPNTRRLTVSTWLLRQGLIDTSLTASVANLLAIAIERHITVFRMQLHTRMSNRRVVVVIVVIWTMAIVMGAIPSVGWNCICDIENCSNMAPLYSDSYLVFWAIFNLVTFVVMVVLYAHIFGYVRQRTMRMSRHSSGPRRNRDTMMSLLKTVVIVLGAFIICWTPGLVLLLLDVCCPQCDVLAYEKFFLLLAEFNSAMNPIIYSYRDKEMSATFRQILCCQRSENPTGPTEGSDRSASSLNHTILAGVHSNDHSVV

Molecule: NC[C@H](O)c1ccc(O)c(O)c1 [Noradrenaline, noradrenaline base]
- activity at 100 µM (PC12 cells; Rattus norvegicus): 93 ± 11.5%
- effect on veratridine-induced [^3H]noradrenaline release at 100 μM (in words) (PC12 cells; [1]): failed to modify

Molecule: CCCCC/C=C\C/C=C\C/C=C\C/C=C\CCCC(=O)NCCO [Anandamide, anandamide]
- effect on veratridine-evoked [^3H]noradrenaline release (PC12 cells; 1 μM anandamide): did not affect
- effect on veratridine-evoked [^3H]noradrenaline release (PC12 cells; 100 μM anandamide): enhanced

Molecule: CS(=O)(=O)O.Cc1c(C(=O)c2cccc3ccccc23)c2cccc3c2n1[C@H](CN1CCOCC1)CO3 [WIN55,212-2, R(+)-[2,3-dihydro-5-methyl-3-[(morpholinyl)methyl]pyrrolo[1,2,3-de]-1,4-benzoxazin-yl)(1-naphthalenyl)methanone mesylate]
- effect on veratridine-induced [^3H]noradrenaline release (concentration-response) (PC12 cells): concentration-dependently inhibited

Molecule: COc1nc(C)nc(Cl)c1N=C1NCCN1 [Moxonidine, moxonidine]
- activity at 100 µM (PC12 cells; Rattus norvegicus): 81.6 ± 5.2%
- effect on veratridine-induced [^3H]noradrenaline release (PC12 cells; up to a concentration of 1000 μM, 3 μM rauwolscine present): failed to modify
- agonist character at the edg2-receptor (h(edg2) receptor): full agonists
- effect on [^35S]GTPγS-binding (h(edg2) receptor): provoke an increase

Molecule: c1ccc(C2CC2)c(OCC2=NCCN2)c1 [Cirazoline, cirazoline hydrochloride]
- activity at 100 µM (PC12 cells; Rattus norvegicus): 17.4 ± 7.5%
- effect on veratridine-induced [^3H]noradrenaline release at 100 μM (in words) (PC12 cells; [1]): inhibited

Molecule: COc1cc2c(c(OC)c1OC)-c1ccc(OC)c(=O)cc1[C@@H](NC(C)=O)CC2 [colchicine]
- inhibition at 50 µM (PC12 cells; Rattus norvegicus, PC-12, read-out: inhibition of veratridine (1 mM)-evoked tritium overflow): 56%

Molecule: Cl.Clc1cccc2c1CN(NC1=NCCN1)C2 [BDF 6143, 4-chloro-2-(2-imidazolin-2-ylamino)-isoindoline hydrochloride]
- activity at 100 µM (PC12 cells; Rattus norvegicus): 74.7 ± 11.1%
- effect on veratridine-induced [^3H]noradrenaline release at 100 μM (in words) (PC12 cells; [1]): inhibited
- effect on veratridine-induced [^3H]noradrenaline release (concentration-response) (PC12 cells): concentration-dependently inhibited

Molecule: Cc1ccccc1NC(=N)Nc1ccccc1C [DTG, 1,3-di(2-tolyl)guanidine]
- activity at 100 µM (PC12 cells; Rattus norvegicus): 63.3 ± 7%
- effect on veratridine-induced [^3H]noradrenaline release at 100 μM (in words) (PC12 cells; [1]): inhibited

Molecule: CCCCCCCCCCCCCCCC(=O)OCC(O)COP(=O)(O)O (stereo not shown) [1-palmitoyl-LPA]
- effect on evoked [^3H]noradrenaline release (PC12 cells; 10 μM 1-palmitoyl-LPA): did not alter
- effect on evoked [^3H]noradrenaline release (PC12 cells; up to 1 μM 1-palmitoyl-LPA): concentration-dependently increased

Molecule: CCCCCCCC/C=C\CCCCCCCC(=O)OC[C@@H](O)COP(=O)(O)O [1-oleoyl-LPA, 1-oleoyl-lysophosphatidic acid]
- effect on evoked [^3H]noradrenaline release (PC12 cells; 10 μM 1-oleoyl-LPA, cells pretreated with 100 μM clonidine for 72 h): did not inhibit but tended to increase
- effect on veratridine-evoked [^3H]noradrenaline release (concentration-response) (PC12 cells): concentration-dependently inhibited

Molecule: N=C(N)NCCCCN.O=S(=O)(O)O [Agmatine, agmatine sulfate]
- activity at 100 µM (PC12 cells; Rattus norvegicus): 76.4 ± 9.5%
- effect on veratridine-induced [^3H]noradrenaline release at 100 μM (in words) (PC12 cells; [1]): inhibited
- effect on veratridine-induced [^3H]noradrenaline release (concentration-response) (PC12 cells): concentration-dependently inhibited

Molecule: Clc1cccc(Cl)c1N=C1NCCN1 [Clonidine, clonidine hydrochloride]
- effect on [^3H]noradrenaline release (PC12 cells; 10 μM clonidine in the presence of 10 μM SR141716A): acted facilitatory
- evoked [^3H]noradrenaline release (% of veratridine-evoked release in the respective control experiments) (PC12 cells; 100 μM clonidine, cells pretreated with 100 μM clonidine for 72 h, n=6): 171±24%
- activity at 100 µM (PC12 cells; Rattus norvegicus): 25.6 ± 12.2%
- effect on veratridine-induced [^3H]noradrenaline release at 100 μM (in words) (PC12 cells; [1]): inhibited
- effect on veratridine-evoked [^3H]noradrenaline release (concentration-response) (PC12 cells): concentration-dependently inhibited
- effect on veratridine-induced [^3H]noradrenaline release (concentration-response) (PC12 cells): concentration-dependently inhibited
- agonist character at the edg2-receptor (h(edg2) receptor): full agonists
- effect on [^35S]GTPγS-binding (h(edg2) receptor): provoke an increase

Molecule: COC(=O)[C@H]1[C@H]2C[C@H]3c4[nH]c5ccccc5c4CCN3C[C@H]2CC[C@@H]1O [Rauwolscine, Rauwolscine hydrochloride]
- effect on the concentration-response curve of clonidine (PC12 cells; 3 μM rauwolscine versus absence of rauwolscine): did not substantially differ
- effect on the concentration-response curve of clonidine (PC12 cells; 30 μM rauwolscine): shifted to the right
- interaction with the inhibitory effect of 10 μM 1-oleoyl-LPA (PC12 cells; 30 μM rauwolscine): counteracted
- effect on veratridine-induced [^3H]noradrenaline release, given alone (PC12 cells; rauwolscine 3 μM alone, n=6): did not significantly modify

Molecule: Cc1c(C(=O)NN2CCCCC2)nn(-c2ccc(Cl)cc2Cl)c1-c1ccc(Cl)cc1 [SR141716A, N-[piperidin-1-yl]-5-[4-chlorophenyl]-1-[2,4-dichlorophenyl]-4-methyl-1H-pyrazole-3-carboxamide]
- interaction with the inhibition produced by 100 μM clonidine (PC12 cells; 1 μM SR141716A): counteracted
- interaction with the inhibitory effect of 10 μM 1-oleoyl-LPA (PC12 cells; 1 μM SR141716A): counteracted
- interaction with the inhibitory effect of 0.3 μM CP55,940 (PC12 cells; 1 μM SR141716A + 3 μM rauwolscine): antagonized
- effect on the concentration-response curve of clonidine (PC12 cells; 10 μM SR141716A): shifted to the right
- effect on veratridine-evoked [^3H]noradrenaline release, given alone (PC12 cells): did not affect

Molecule: lysophospatidic acid [LPA]
- effect on [^35S]GTPγS-binding (h(edg2) receptor): provoke an increase

Molecule: N=C(N)NN1Cc2c(Cl)ccc(Cl)c2C1 [Aganodine, aganodine]
- effect on veratridine-induced [^3H]noradrenaline release at 100 μM (in words) (PC12 cells; [1]): inhibited
- Veratridine (1 mM)-induced [^3H]noradrenaline release (% of controls without drug) (PC12 cells; drug 100 μM, 15 mM KCl, 1 μM desipramine and 3 μM rauwolscine throughout, means ± SEM of 6-11 experiments): 32.3 ± 5.7%

Molecule: CCCCCCCCCCCCC/C=C/[C@@H](O)[C@@H](N)COP(=O)(O)O [S1P, sphingosine-1-phosphate]
- evoked [^3H]noradrenaline release (% of veratridine-evoked release in the respective control experiments) (PC12 cells; 10 μM S1P, n=6): 101.7%±31.3%

Molecule: [(−)-cis-3-[2-hydroxy-4-(1,1-dimethylheptyl)phenyl]-trans-4-(3-hydroxypropyl)-cyclohexane [CP55,940]
- effect on evoked tritium overflow (PC12 cells; 0.3 μM CP55,940): significantly inhibited
- effect on evoked tritium overflow (PC12 cells; 1 μM CP55,940): no inhibition
- effect on evoked tritium overflow (PC12 cells; 10 μM CP55,940): facilitation

Molecule: Cc1c(C(=O)c2cccc3ccccc23)c2cccc3c2n1[C@@H](CN1CCOCC1)CO3 [WIN55,212-3]
- effect on veratridine-induced [^3H]noradrenaline release at 100 μM (in words) (PC12 cells; [1]): did not

Molecule: COc1ccc(-c2sc3cc(OC)ccc3c2C(=O)c2ccc(C#N)cc2)cc1 [LY320135, [6-methoxy-2-(4-methoxyphenyl)benzo[b]thien-3-yl][4-cyanophenyl]methanone]
- interaction with the inhibition produced by 100 μM clonidine (PC12 cells; 10 μM LY320135): counteracted
- evoked [^3H]noradrenaline release (% of evoked release in the respective control experiments) (PC12 cells; 10 μM LY320135 together with 10 μM 1-oleoyl-LPA, n=6): 198.8%±39.9%
- effect on veratridine-evoked [^3H]noradrenaline release, given alone (PC12 cells): did not affect
